Consider two compounds from patent US11718635B2, “Iron bis(imino) aryl catalysts and methods thereof” (ExxonMobil Chemical Patents Inc., priority 2019, dated 2023).

This data set is described as follows: Solubility tests in anhydrous hexane (stirred 30 minutes at room temperature, filtered, solvent removed). The format is physicochemical. As for the experimental part:
(§1) This solution was stirred for 30 minutes at room temperature. The contents were then filtered through a buchner filter funnel with a frit having a 4-5.5 micron size. The solvent was then removed en vacuo.
as §1

With `CC(=Nc1c(C)cc(C)cc1Cl)c1cccc(C(C)=Nc2c(C)cc(C)cc2Cl)n1.[Cl][Fe][Cl]` [2,6-bis-[1-(2-chloro-4,6-dimethylphenylimino)ethyl]pyridine iron dichloride], the calculated solubility (anhydrous hexane, stirred 30 minutes at room temperature, filtered through 4-5.5 micron frit) is listed as 0.0 g/g hexane.
For “(E)-N-(2-chloro-4,6-dimethylphenyl)-1-(6-((E)-1-(mesitylimino)ethyl)pyridin-2-yl)ethan-1-imine iron-silylneopentyl [Catalyst 1]”, the “solubility in hydrophobic (nonpolar) solvents compared to the Comparative Catalyst” value is listed as “significantly improved solubility”.
